“And” between values parts separate entries of the source, which are not always exact repeats. Identical values can stand only once. Like-named read-outs stand apart in the source and are kept apart here.
Key:
Format in all cases: biochemical
[1] = target: T1, TGR (Schistosoma mansoni, UniProt Q962Y6); assay: Reversibility by jump dilution; details: for % Activity (ID list), D0 / % Inhibition (ID list), D0: D0: diluted 1:100, activity determined immediately; for % Activity (ID list), D0 / % Inhibition (ID list), D0 / % Activity (ID list), D60 / % Inhibition (ID list), D60 / % Activity (ID list) / % Inhibition (ID list): list for plotting; for % Activity (ID list), D60 / % Inhibition (ID list), D60: D60: diluted 1:100, activity determined after 60 min; for % Activity, 0 min / % Activity, 60 min / % Activity, -15: relative to DMSO; for Inhibitor (rate), -15 / % Activity, -15: [-15]: 15 min preincubation inhibitor + TGR + NADPH, then activity determined, replicates; for % Activity (ID list) / % Inhibition (ID list): before dilution (-15)
T1 construct: made in house
T1 sequence (Q962Y6 1-598): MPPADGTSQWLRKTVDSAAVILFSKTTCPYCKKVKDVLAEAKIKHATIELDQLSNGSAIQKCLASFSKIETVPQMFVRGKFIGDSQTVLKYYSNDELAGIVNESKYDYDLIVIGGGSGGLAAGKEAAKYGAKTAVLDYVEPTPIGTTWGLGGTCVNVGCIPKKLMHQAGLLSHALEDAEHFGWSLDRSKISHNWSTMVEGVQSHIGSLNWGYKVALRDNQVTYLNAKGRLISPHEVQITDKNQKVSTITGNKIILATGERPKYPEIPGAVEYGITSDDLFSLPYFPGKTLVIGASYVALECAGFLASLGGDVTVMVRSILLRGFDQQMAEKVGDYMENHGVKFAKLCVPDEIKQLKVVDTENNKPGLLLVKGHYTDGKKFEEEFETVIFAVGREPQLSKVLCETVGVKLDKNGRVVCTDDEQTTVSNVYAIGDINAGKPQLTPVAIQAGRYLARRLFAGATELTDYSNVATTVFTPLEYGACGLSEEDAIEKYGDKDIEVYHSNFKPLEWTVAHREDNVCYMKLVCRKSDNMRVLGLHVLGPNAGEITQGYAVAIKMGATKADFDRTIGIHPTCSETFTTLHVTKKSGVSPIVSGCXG
Method: A reaction of 370 nM TGR, 100 µM NADPH, and 250 µM inhibitor was incubated for 15 min at room temperature. A 100x dilution of the reaction was made and the activity was determined immediately and after 60 min.

[2] = target: BmTrxR (Brugia malayi, UniProt A0A1I9G0T9); assay: B. malayi TrxR enzyme inhibition; details: for inhibition at 10 µM: 10 µM compound; for inhibition at 25 µM: 25 µM compound
Chain of BmTrxR (A0A1I9G0T9 entry or part of it, added parts left off): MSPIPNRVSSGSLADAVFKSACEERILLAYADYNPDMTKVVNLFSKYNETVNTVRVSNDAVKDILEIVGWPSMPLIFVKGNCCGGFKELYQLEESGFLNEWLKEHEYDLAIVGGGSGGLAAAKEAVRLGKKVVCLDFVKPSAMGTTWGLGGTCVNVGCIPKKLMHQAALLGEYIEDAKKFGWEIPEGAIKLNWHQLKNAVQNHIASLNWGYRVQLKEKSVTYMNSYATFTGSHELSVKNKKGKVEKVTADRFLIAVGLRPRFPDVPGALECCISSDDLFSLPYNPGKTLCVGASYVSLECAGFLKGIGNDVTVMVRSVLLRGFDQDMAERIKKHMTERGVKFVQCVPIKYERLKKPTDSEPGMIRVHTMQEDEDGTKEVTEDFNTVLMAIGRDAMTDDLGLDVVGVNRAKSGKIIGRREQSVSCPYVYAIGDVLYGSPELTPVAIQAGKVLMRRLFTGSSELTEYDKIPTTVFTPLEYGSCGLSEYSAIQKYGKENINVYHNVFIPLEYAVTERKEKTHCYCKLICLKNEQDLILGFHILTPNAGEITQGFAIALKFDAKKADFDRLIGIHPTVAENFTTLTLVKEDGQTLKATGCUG
Method: Recombinant TGR, human TrxR1, B. malayi (Bm)TrxR and human GR proteins were expressed and purified as described[20],[69],[79]. The codon optimized sequence for P. falciparum (PfTrxR, https://www.ncbi.nlm.nih.gov/protein/CAA60574.1/) with an N-terminal 6-His tag was synthesized and inserted into pET15b (GenScript) and expressed in BL21 (DE3) cells and purified as described for human GR[20]. […] The reaction was started with addition of an equal volume of DTNB (6 mM) and NADPH (100 µM) and the increase in A412 during the first 3 min was recorded. […] Activity was initiated with the addition of 1 mM GSSG and 100 μM NADPH and initial rates of NADPH oxidation were monitored at 340 nm. The reactions were done in triplicate. The IC50 was calculated in GraphPad Prism.

[3] = target: T2, PfTrxR (Plasmodium falciparum, UniProt Q25861); assay: P. falciparum TrxR enzyme inhibition
T2 construct: 6-His (N); made in house; host or cells: E. coli BL21 (DE3)
T2 sequence (Q25861 1-541): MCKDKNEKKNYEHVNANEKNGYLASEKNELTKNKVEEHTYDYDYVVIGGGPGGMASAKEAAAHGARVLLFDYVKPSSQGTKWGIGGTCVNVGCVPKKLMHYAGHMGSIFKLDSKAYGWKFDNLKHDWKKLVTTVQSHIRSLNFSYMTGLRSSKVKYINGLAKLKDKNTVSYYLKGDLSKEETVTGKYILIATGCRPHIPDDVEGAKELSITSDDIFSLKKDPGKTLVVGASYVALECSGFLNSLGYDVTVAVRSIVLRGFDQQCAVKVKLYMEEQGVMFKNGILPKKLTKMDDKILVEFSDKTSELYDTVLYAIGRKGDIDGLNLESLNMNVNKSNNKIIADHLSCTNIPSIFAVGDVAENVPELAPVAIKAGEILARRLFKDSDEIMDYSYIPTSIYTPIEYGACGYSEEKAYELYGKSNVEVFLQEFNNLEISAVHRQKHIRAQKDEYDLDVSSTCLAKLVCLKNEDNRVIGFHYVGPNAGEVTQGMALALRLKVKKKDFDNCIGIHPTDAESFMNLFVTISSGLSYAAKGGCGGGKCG
Method: Recombinant TGR, human TrxR1, B. malayi (Bm)TrxR and human GR proteins were expressed and purified as described[20],[69],[79]. The codon optimized sequence for P. falciparum (PfTrxR, https://www.ncbi.nlm.nih.gov/protein/CAA60574.1/) with an N-terminal 6-His tag was synthesized and inserted into pET15b (GenScript) and expressed in BL21 (DE3) cells and purified as described for human GR[20]. TGR and TrxR enzyme inhibition assays were performed in triplicate at 25 °C as described[20] in 0.1 M potassium phosphate (pH 7.4), 10 mM EDTA, 100 µM NADPH and 0.01% Tween-20. TGR, human TrxR1 and BmTrxR (all at 4 nM) and PfTrxR (50 nM) were preincubated with the compounds for 15 min. The reaction was started with addition of an equal volume of DTNB (6 mM) and NADPH (100 µM) and the increase in A412 during the first 3 min was recorded. […] The reaction was preincubated for 15 min. Activity was initiated with the addition of 1 mM GSSG and 100 μM NADPH and initial rates of NADPH oxidation were monitored at 340 nm. The reactions were done in triplicate. The IC50 was calculated in GraphPad Prism.

[4] = target: T1, TGR; assay: Time dependence of inhibition; details: panel c, replicates
Method: TGR was incubated at room temperature (up to 6 h) and at 4 °C for 6 to 24 h with 50 µM inhibitor and 100 µM NADPH for the indicated times. Then DTNB (3 mM) and NADPH (100 µM) were added, and the reaction was monitored at A412 for 5 min. The assay was done in triplicate.

[5] = [0, D0]: 15 min preincubation inhibitor + TGR + NADPH, diluted 1:100, then activity determined immediately
[6] = [60, D60]: 15 min preincubation inhibitor + TGR + NADPH, diluted 1:100, then activity determined after 60 min
[7] = BmTrxR, mean of 3 replicates, read-out: % inhibition
[8] = BmTrxR, 50 µM compound, mean of 3 replicates, read-out: % inhibition

Question: How did the “reversibility of TGR inhibition” value ([1]; 250 µM inhibitor, 100-fold jump dilution) turn out when CC(=O)OC[C@H]1O[C@@H]([S-])[C@H](OC(C)=O)[C@@H](OC(C)=O)[C@@H]1OC(C)=O.CCP(CC)CC.[Au+] [AF, auranofin, reference compound] was run?
Answer: irreversible

Question: And the “% Activity (ID list), D0” value [1]?
Answer: 1.9% and -0.049%

Question: And the “% Inhibition (ID list), D0” value [1]?
Answer: 98.1% and 100.0%

Question: What about the “% Activity (ID list), D60” value [1] of the same molecule?
Answer: 3.7% and -3.0% and -2.8%

Question: And the “% Inhibition (ID list), D60” value [1]?
Answer: 96.3% and 103.0% and 102.8%

Question: What about the “% Activity, 0 min” value [1, 5] of the same molecule?
Answer: 1.94% and 1.91% and -0.04934%

Question: And the “% Activity, 60 min” value [1, 6]?
Answer: 3.69% and -3.0493% and -2.833%

Question: And the “Inhibitor (rate), -15” value ([1]; raw rate)?
Answer: 0.001018 and 0.001002 and 0.001033

Question: What about the “% Activity, -15” value [1] of the same molecule?
Answer: 0.7444% and 0.7656% and 0.7594%

Question: And the “% Activity (ID list)” value [1]?
Answer: 0.744% and 0.8% and 0.759%

Question: What about the “% Inhibition (ID list)” value [1] of the same molecule?
Answer: 100.0%

Question: What does the source list for CCc1ccccc1-c1nc(CN[C@@H]2C[C@@H]3C[C@H]([C@H]2C)C3(C)C)c(C)o1 [Compound 2]?
Answer: inhibition at 10 µM [2, 7]: 0.63%; inhibition at 25 µM [2, 7]: 5.59%; inhibition at 50 µM [2, 8]: 12.9%; inhibition at 50 µM ([2]; read-out: BmTrxR % inhibition at 50 µM, 50 µM, the highest concentration tested): 13%; inhibition at 10 µM [3]: -8.06%; inhibition at 25 µM [3]: -45.1%; inhibition at 50 µM [3]: -32.7%; PfTrxR % inhibition at 50 µM ([3]; 50 µM, the highest concentration tested): n.i.

Question: With C#CCN(Cc1nc(-c2ccccc2)oc1C)[C@@H]1C[C@@H]2C[C@H]([C@H]1C)C2(C)C [Compound 6] as the molecule, how does the “% Activity (ID list), D0” value [1] read?
Answer: 75.6% and 75.7% and 80.1%

Question: What about the “% Inhibition (ID list), D0” value [1] of the same molecule?
Answer: 24.4% and 24.3% and 19.9%

Question: And the “% Activity (ID list), D60” value [1]?
Answer: 78.0% and 78.9% and 78.3%

Question: And the “% Inhibition (ID list), D60” value [1]?
Answer: 22.0% and 21.1% and 21.7%

Question: What about the “Inhibitor (rate), 0 min” value ([1]; [0, D0]: 15 min preincubation inhibitor + TGR + NADPH, diluted 1:100, then activity determined immediately, raw rate) of the same molecule?
Answer: 0.03741 and 0.03869 and 0.04167

Question: What about the “% Activity, 0 min” value [1, 5] of the same molecule?
Answer: 75.6216% and 75.6995% and 80.0576%

Question: What about the “Inhibitor (rate), 60 min” value ([1]; [60, D60]: 15 min preincubation inhibitor + TGR + NADPH, diluted 1:100, then activity determined after 60 min, raw rate) of the same molecule?
Answer: 0.03652 and 0.03852 and 0.03804

Question: What about the “% Activity, 60 min” value [1, 6] of the same molecule?
Answer: 78.0175% and 78.8698% and 78.3361%

Question: What about the “Inhibitor (rate), -15” value ([1]; raw rate) of the same molecule?
Answer: 0.0007205 and 0.001179 and -0.0005968

Question: And the “% Activity, -15” value [1]?
Answer: 1.808% and 2.913% and -1.39%

Question: What about the “% Activity (ID list)” value [1] of the same molecule?
Answer: 2.9% and -1.4%

Question: What about the “% Inhibition (ID list)” value [1] of the same molecule?
Answer: 98.2% and 97.1% and 101.4%

Question: And the “TGR activity relative to dmso, time 0” value ([4]; time 0 (time unit not given))?
Answer: 3.265 and 0.9012

Question: And the “TGR activity relative to dmso, time 5” value ([4]; time 5 (time unit not given))?
Answer: 0.7526 and -0.07048 and -0.5247

Question: What about the “TGR activity relative to dmso, time 10” value ([4]; time 10 (time unit not given)) of the same molecule?
Answer: 0.5708 and -0.4368 and -0.3757

Question: And the “TGR activity relative to dmso, time 15” value ([4]; time 15 (time unit not given))?
Answer: 0.7215 and 0.1963 and -0.1983

Question: And the “TGR activity relative to dmso, time 30” value ([4]; time 30 (time unit not given))?
Answer: 2.551 and 1.111 and 1.493

Question: What does the source list for CC1C(NCc2cn(C3OCC(O)C(O)C3O)c3ccccc23)CC2CC1C2(C)C (centres unmarked) [Compound 9]?
Answer: IC50 [2]: 13.7 ± 1.03 µM; inhibition at 10 µM [2, 7]: 47.6%; inhibition at 25 µM [2, 7]: 70.1%; inhibition at 50 µM [2, 8]: 83.3%; inhibition at 10 µM [3]: 6.78%; inhibition at 25 µM [3]: 8.79%; inhibition at 50 µM [3]: 16.2%; inhibition at 50 µM ([3]; read-out: PfTrxR % inhibition at 50 µM): 16%
